The source of these data is PubChem BioAssay (NCI).

Values joined by “and” are separate entries in the source; they are usually repeats but may differ in a detail not shown here. Equal values may be shown once.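 The compound was tested at five concentrations on cells cultured in 96-well plates, with a 48-hour exposure period. GI50 = concentration required for 50% inhibition of growth. The concentration for full growth arrest is given as TGI.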

Some test systems named below: A549 NSCLC; HL-60(TB) leukemia; HS 578T breast; KM12 colon; LOX IMVI melanoma; MCF7 breast; MDA-MB-231 breast; MOLT-4 leukemia; SF-539 CNS; UACC-62 melanoma.
What all share (test): NCI tumour cell line growth inhibition, 48 h

On to `COc1ccc(NC(=O)C2CCC(CNS(=O)(=O)c3ccccc3)CC2)cc1OC` (configuration not stated), for which the GI50 with A549 NSCLC was over 100 µM; in the experiment on HL-60(TB) leukemia it was over 100 µM; in the experiment with HS 578T breast it was 76.5 µM; in the experiment on KM12 colon, over 100 µM; in the experiment with LOX IMVI melanoma, over 100 µM; with MCF7 breast it was over 100 µM. Moreover, the GI50 is 35.3 µM in the experiment with MDA-MB-231 breast, over 100 µM in the experiment with MOLT-4 leukemia, over 100 µM with SF-539 CNS and 54.6 µM with UACC-62 melanoma. Further, the TGI with A549 NSCLC, in the experiment on HL-60(TB) leukemia, in the experiment with HS 578T breast, in the experiment with KM12 colon, with LOX IMVI melanoma and with MCF7 breast was over 100 µM throughout. Also, the TGI in the experiment on MDA-MB-231 breast, in the experiment on MOLT-4 leukemia, in the experiment on SF-539 CNS and in the experiment with UACC-62 melanoma was over 100 µM in each case.
For `O=C(/C=C/c1cccc(O)c1)c1cccc(-n2cc(-c3ccccc3)[nH]c2=O)c1`, the GI50 with A549 NSCLC is 6.39 µM; in the experiment on HL-60(TB) leukemia, 3.27 µM; in the experiment with HS 578T breast it was 5.7 µM; in the experiment on KM12 colon, 1.78 µM; in the experiment with LOX IMVI melanoma it was 1.81 µM; in the experiment with MCF7 breast, 2.29 µM. The GI50 in the experiment with MDA-MB-231 breast is 3.59 µM; in the experiment on MOLT-4 leukemia, 3.38 µM; in the experiment with SF-539 CNS it was 1.97 µM; in the experiment with UACC-62 melanoma, 2.82 µM. In addition, the TGI with A549 NSCLC was found to be 21.8 µM; in the experiment on HL-60(TB) leukemia, 17.5 µM; in the experiment on HS 578T breast it was 44.6 µM; in the experiment on KM12 colon, 3.46 µM; in the experiment with LOX IMVI melanoma, 3.44 µM; in the experiment with MCF7 breast it was 6.68 µM. Further, the TGI was 12.6 µM in the experiment with MDA-MB-231 breast, over 27.3 µM in the experiment with MOLT-4 leukemia, 3.84 µM in the experiment with SF-539 CNS and 9.54 µM in the experiment on UACC-62 melanoma.
As to `COc1ncnc(NS(=O)(=O)c2ccc(N=C3C(=O)N(CN4CCN(c5c(F)cc6c(=O)c(C(=O)O)cn(C7CC7)c6c5OC)CC4C)c4ccc(Br)cc43)cc2)c1OC` (configuration not stated), the GI50 in the experiment with A549 NSCLC is 4.78 µM; with HL-60(TB) leukemia, 8.4 µM; in the experiment with HS 578T breast, 12.1 µM; in the experiment on KM12 colon, 4.02 µM; in the experiment on LOX IMVI melanoma it was 1.22 µM; in the experiment on MCF7 breast it was 7.1 µM. For the same compound, the GI50 was 9.42 µM in the experiment on MDA-MB-231 breast, 18.3 µM with MOLT-4 leukemia, 7.53 µM in the experiment on SF-539 CNS and 2.61 µM with UACC-62 melanoma. Moreover, the TGI was over 50 µM in the experiment with A549 NSCLC; over 50 µM in the experiment with HL-60(TB) leukemia; over 50 µM in the experiment with HS 578T breast; 15.9 µM in the experiment on KM12 colon; 31.4 µM with LOX IMVI melanoma; 41.9 µM in the experiment on MCF7 breast. Also, the TGI with MDA-MB-231 breast is 25.4 µM; with MOLT-4 leukemia, over 50 µM; with SF-539 CNS it was 22.1 µM; with UACC-62 melanoma, 11.3 µM.
With `Cc1cc(N=Nc2ccccc2C)ccc1N`, the GI50 in the experiment with A549 NSCLC was 3.42 µM; in the experiment on HL-60(TB) leukemia it was 0.486 µM; in the experiment with HS 578T breast it was 13.3 µM; in the experiment with KM12 colon, 7.37 µM; with LOX IMVI melanoma, 13.9 µM; in the experiment with MCF7 breast, 16.5 µM. Moreover, the GI50 with MDA-MB-231 breast was 12.7 µM; in the experiment with MOLT-4 leukemia it was 0.967 µM. Besides, the TGI is 17.1 µM and 20.3 µM in the experiment with A549 NSCLC; 32.1 µM and 45.9 µM in the experiment on HS 578T breast; 23.2 µM and 21.5 µM with KM12 colon; 25 µM and 28.9 µM in the experiment with LOX IMVI melanoma; 36.2 µM and 43.6 µM with MCF7 breast; 30.7 µM and 28.4 µM with MDA-MB-231 breast. Further, the TGI in the experiment with MOLT-4 leukemia was over 100 µM; in the experiment on SF-539 CNS it was 12.1 µM and 11.6 µM; in the experiment with UACC-62 melanoma, 25.1 µM and 30.6 µM.
